Laboratory results as given in patent publication US9670227B2, “Thienopyrimidine derivatives, a process for their preparation and pharmaceutical compositions containing them” (LES LABORATOIRES SERVIER, priority 2013, dated 2017).
Read-outs that look alike come from different tables or passages of the source.

What was measured:
[1] = system: H929 multiple myeloma tumour line; assay: In vitro cytotoxicity, Microculture Tetrazolium Assay; assay type: cell-based; conditions: H929 cells, 48 hours exposure, MTT, read-out: IC50 (μM) MTT H929
Description: The cytotoxicity studies were carried out on the H929 multiple myeloma tumour line.
The cells are distributed onto microplates and exposed to the test compounds for 48 hours.

Mcl-1 protein = Mcl-1 protein (UniProtKB primary accession number: Q07820) (Homo sapiens, UniProt Q07820); assay: Inhibition of Mcl-1 by fluorescence polarisation, Method 1; assay type: binding; conditions: fluorescence polarisation test; Method 2 values are underlined in the patent (underlining not visible here); read-out: IC50 (M) Mcl-1 FP
In short: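 Fluorescence polarisation competition with an 11-point compound dilution series (final DMSO 5%). Mcl-1 protein at 5 nM and fluorescein-labelled ligand at 1 nM (final) in 10 mM HEPES, 150 mM NaCl, 0.05% Tween 20, pH 7.4.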

Chain of Mcl-1 protein (Q07820 whole entry): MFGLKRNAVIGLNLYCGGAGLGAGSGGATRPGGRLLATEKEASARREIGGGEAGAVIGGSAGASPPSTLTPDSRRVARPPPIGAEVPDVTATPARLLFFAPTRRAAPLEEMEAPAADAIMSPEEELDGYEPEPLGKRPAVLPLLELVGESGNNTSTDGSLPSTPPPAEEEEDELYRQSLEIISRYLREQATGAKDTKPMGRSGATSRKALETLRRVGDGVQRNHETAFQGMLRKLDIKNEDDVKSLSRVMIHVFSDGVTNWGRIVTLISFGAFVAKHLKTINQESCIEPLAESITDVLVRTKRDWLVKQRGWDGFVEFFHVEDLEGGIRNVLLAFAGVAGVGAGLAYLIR

| IC50 (Mcl-1 protein) [M] | Compound | IC50 [1] [µM] | IC50 ([1]; Homo sapiens, NCI-H929, 48 h) [µM] |
| --- | --- | --- | --- |
| 2.2e-08 | Cc1c(-c2c(-c3ccc(F)cc3)sc3ncnc(OC(Cc4ccccc4OCc4cnccn4)C(=O)O)c23)ccc(OCC2CCN(C)C2)c1Cl [Example 140, (2R)-2-{[(5Sa)-5-(3-chloro-2-methyl-4-{[(3S)-1-methylpyrrolidin-3-yl]methoxy}phenyl)-6-(4-fluorophenyl)thieno[2,3-d]pyrimidin-4-yl]oxy}-3-[2-(pyrazin-2-ylmethoxy)phenyl]propanoic acid] | 0.205 | – |
| 2.6e-08 | Cc1c(-c2c(-c3ccc(F)cc3)sc3ncnc(OC(Cc4ccccc4OCc4cnccn4)C(=O)O)c23)ccc(OCC2CCCN2C)c1Cl [Example 143, (2R)-2-{[(5Sa)-5-{3-chloro-2-methyl-4-[(1-methylpyrrolidin-2-yl)methoxy]phenyl}-6-(4-fluorophenyl)thieno[2,3-d]pyrimidin-4-yl]oxy}-3-[2-(pyrazin-2-ylmethoxy)phenyl]propanoic acid] | – | 1.61 |
| 1.6e-08 | Cc1c(-c2c(-c3ccc(F)cc3)sc3ncnc(O[C@H](Cc4ccccc4OCc4cnccn4)C(=O)O)c23)ccc(OCC2CCCCN(C)C2)c1Cl (stereo partly drawn) [Example 144, (2R)-2-{[(5Sa)-5-{3-chloro-2-methyl-4-[(1-methylazepan-3-yl)methoxy]phenyl}-6-(4-fluorophenyl)thieno[2,3-d]pyrimidin-4-yl]oxy}-3-[2-(pyrazin-2-ylmethoxy)phenyl]propanoic acid] | 1.6 | – |
| 1.1e-08 | Cc1c(-c2c(-c3ccc(F)cc3)sc3ncnc(OC(Cc4ccccc4OCc4cnccn4)C(=O)O)c23)ccc(OCC2CCN(C)C2)c1Cl [Example 145, (2R)-2-{[(5Sa)-5-{3-chloro-2-methyl-4-[(1-methylpyrrolidin-3-yl)methoxy]phenyl}-6-(4-fluorophenyl)thieno[2,3-d]pyrimidin-4-yl]oxy}-3-[2-(pyrazin-2-ylmethoxy)phenyl]propanoic acid] | 0.293 | – |
| 3.5e-08 | Cc1c(-c2c(-c3ccc(F)cc3)sc3ncnc(OC(Cc4ccccc4OCc4cnccn4)C(=O)O)c23)ccc(OCCCC2CCCN2C)c1Cl [Example 146, (2R)-2-{[(5Sa)-5-{3-chloro-2-methyl-4-[3-(1-methylpyrrolidin-2-yl)propoxy]phenyl}-6-(4-fluorophenyl)thieno[2,3-d]pyrimidin-4-yl]oxy}-3-[2-(pyrazin-2-ylmethoxy)phenyl]propanoic acid] | – | 1.16 |
| 2.4e-08 | Cc1c(-c2c(-c3ccc(F)cc3)sc3ncnc(OC(Cc4ccccc4OCc4cnccn4)C(=O)O)c23)ccc(OCCCN(C)C)c1Cl [Example 147, (2R)-2-{[(5Sa)-5-{3-chloro-4-[3-(dimethylamino)propoxy]-2-methylphenyl}-6-(4-fluorophenyl)thieno[2,3-d]pyrimidin-4-yl]oxy}-3-[2-(pyrazin-2-ylmethoxy)phenyl]propanoic acid] | – | 0.787 |
| 3.6e-09 | CNC(=O)COc1ccccc1CC(Oc1ncnc2sc(-c3ccc(F)o3)c(-c3ccc(OCCN4CCN(C)CC4)c(Cl)c3C)c12)C(=O)O [Example 151, (2R)-2-{[(5Sa)-5-{3-chloro-2-methyl-4-[2-(4-methylpiperazin-1-yl)ethoxy]phenyl}-6-(5-fluorofuran-2-yl)thieno[2,3-d]pyrimidin-4-yl]oxy}-3-{2-[2-(methylamino)-2-oxoethoxy]phenyl}propanoic acid] | – | 0.309 |
| 9.9e-09 | Cc1c(-c2c(-c3ccc(F)o3)sc3ncnc(OC(Cc4ccccc4OCC(=O)NC4CCCC4)C(=O)O)c23)ccc(OCCN2CCN(C)CC2)c1Cl [Example 152, (2R)-2-{[(5Sa)-5-{3-chloro-2-methyl-4-[2-(4-methylpiperazin-1-yl)ethoxy]phenyl}-6-(5-fluorofuran-2-yl)thieno[2,3-d]pyrimidin-4-yl]oxy}-3-{2-[2-(cyclopentylamino)-2-oxoethoxy]phenyl}propanoic acid] | – | 0.19 |
| 5e-09 | Cc1c(-c2c(-c3ccc(F)o3)sc3ncnc(OC(Cc4ccccc4OCC(=O)NCc4ccccc4)C(=O)O)c23)ccc(OCCN2CCN(C)CC2)c1Cl [Example 153, (2R)-3-{2-[2-(benzylamino)-2-oxoethoxy]phenyl}-2-{[(5Sa)-5-{3-chloro-2-methyl-4-[2-(4-methylpiperazin-1-yl)ethoxy]phenyl}-6-(5-fluorofuran-2-yl)thieno[2,3-d]pyrimidin-4-yl]oxy}propanoic acid] | – | 0.146 |
| 6.6e-09 | CCCNC(=O)COc1ccccc1CC(Oc1ncnc2sc(-c3ccc(F)o3)c(-c3ccc(OCCN4CCN(C)CC4)c(Cl)c3C)c12)C(=O)O [Example 154, (2R)-2-{[(5Sa)-5-{3-chloro-2-methyl-4-[2-(4-methylpiperazin-1-yl)ethoxy]phenyl}-6-(5-fluorofuran-2-yl)thieno[2,3-d]pyrimidin-4-yl]oxy}-3-{2-[2-oxo-2-(propylamino)ethoxy]phenyl}propanoic acid] | – | 0.1 |
| 7.6e-09 | Cc1c(-c2c(-c3ccc(F)o3)sc3ncnc(OC(Cc4ccccc4OCC(=O)NCCc4ccccc4)C(=O)O)c23)ccc(OCCN2CCN(C)CC2)c1Cl [Example 155, (2R)-2-{[(5Sa)-5-{3-chloro-2-methyl-4-[2-(4-methylpiperazin-1-yl)ethoxy]phenyl}-6-(5-fluorofuran-2-yl)thieno[2,3-d]pyrimidin-4-yl]oxy}-3-(2-{2-oxo-2-[(2-phenylethyl)amino]ethoxy}phenyl)propanoic acid] | – | 0.189 |
| 7e-09 | CCCCNC(=O)COc1ccccc1CC(Oc1ncnc2sc(-c3ccc(F)o3)c(-c3ccc(OCCN4CCN(C)CC4)c(Cl)c3C)c12)C(=O)O [Example 156, (2R)-3-{2-[2-(butylamino)-2-oxoethoxy]phenyl}-2-{[(5Sa)-5-{3-chloro-2-methyl-4-[2-(4-methylpiperazin-1-yl)ethoxy]phenyl}-6-(5-fluorofuran-2-yl)thieno[2,3-d]pyrimidin-4-yl]oxy}propanoic acid] | – | 0.092 |
| 7e-09 | COCCNC(=O)COc1ccccc1CC(Oc1ncnc2sc(-c3ccc(F)o3)c(-c3ccc(OCCN4CCN(C)CC4)c(Cl)c3C)c12)C(=O)O [Example 157, (2R)-2-{[(5Sa)-5-{3-chloro-2-methyl-4-[2-(4-methylpiperazin-1-yl)ethoxy]phenyl}-6-(5-fluorofuran-2-yl)thieno[2,3-d]pyrimidin-4-yl]oxy}-3-(2-{2-[(2-methoxyethyl)amino]-2-oxoethoxy}phenyl)propanoic acid] | – | 0.286 |
| 9.8e-09 | Cc1c(-c2c(-c3ccc(F)o3)sc3ncnc(OC(Cc4ccccc4OCc4cc(C(F)(F)F)ccn4)C(=O)O)c23)ccc(OCCN2CCN(C)CC2)c1Cl [Example 159, (2R)-2-{[(5Sa)-5-{3-chloro-2-methyl-4-[2-(4-methylpiperazin-1-yl)ethoxy]phenyl}-6-(5-fluorofuran-2-yl)thieno[2,3-d]pyrimidin-4-yl]oxy}-3-(2-{[4-(trifluoromethyl)pyridin-2-yl]methoxy}phenyl)propanoic acid] | – | 0.246 |
| 5e-09 | COc1nc(C)cc(COc2ccccc2CC(Oc2ncnc3sc(-c4ccc(F)o4)c(-c4ccc(OCCN5CCN(C)CC5)c(Cl)c4C)c23)C(=O)O)n1 [Example 160, (2R)-2-{[(5Sa)-5-{3-chloro-2-methyl-4-[2-(4-methylpiperazin-1-yl)ethoxy]phenyl}-6-(5-fluorofuran-2-yl)thieno[2,3-d]pyrimidin-4-yl]oxy}-3-{2-[(2-methoxy-6-methylpyrimidin-4-yl)methoxy]phenyl}propanoic acid] | – | 0.021 |
| 3.9e-09 | Cc1cc(COc2ccccc2CC(Oc2ncnc3sc(-c4ccc(F)o4)c(-c4ccc(OCCN5CCN(C)CC5)c(Cl)c4C)c23)C(=O)O)ncn1 [Example 161, (2R)-2-{[(5Sa)-5-{3-chloro-2-methyl-4-[2-(4-methylpiperazin-1-yl)ethoxy]phenyl}-6-(5-fluorofuran-2-yl)thieno[2,3-d]pyrimidin-4-yl]oxy}-3-{2-[(6-methylpyrimidin-4-yl)methoxy]phenyl}propanoic acid] | – | 0.081 |
| 9.9e-09 | COc1cc(COc2ccccc2CC(Oc2ncnc3sc(-c4ccc(F)o4)c(-c4ccc(OCCN5CCN(C)CC5)c(Cl)c4C)c23)C(=O)O)ncn1 [Example 162, (2R)-2-{[(5Sa)-5-{3-chloro-2-methyl-4-[2-(4-methylpiperazin-1-yl)ethoxy]phenyl}-6-(5-fluorofuran-2-yl)thieno[2,3-d]pyrimidin-4-yl]oxy}-3-{2-[(6-methoxypyrimidin-4-yl)methoxy]phenyl}propanoic acid] | – | 0.027 |
| 1.2e-08 | Cc1c(-c2c(-c3ccc(F)o3)sc3ncnc(OC(Cc4ccccc4OCc4ccc(F)cn4)C(=O)O)c23)ccc(OCCN2CCN(C)CC2)c1Cl [Example 163, (2R)-2-{[(5Sa)-5-{3-chloro-2-methyl-4-[2-(4-methylpiperazin-1-yl)ethoxy]phenyl}-6-(5-fluorofuran-2-yl)thieno[2,3-d]pyrimidin-4-yl]oxy}-3-{2-[(5-fluoropyridin-2-yl)methoxy]phenyl}propanoic acid] | – | 0.047 |
| 8.2e-09 | Cc1c(-c2c(-c3ccc(F)o3)sc3ncnc(OC(Cc4ccccc4OCc4cccc(C(F)(F)F)n4)C(=O)O)c23)ccc(OCCN2CCN(C)CC2)c1Cl [Example 164, (2R)-2-{[(5Sa)-5-{3-chloro-2-methyl-4-[2-(4-methylpiperazin-1-yl)ethoxy]phenyl}-6-(5-fluorofuran-2-yl)thieno[2,3-d]pyrimidin-4-yl]oxy}-3-(2-{[6-(trifluoromethyl)pyridin-2-yl]methoxy}phenyl)propanoic acid] | – | 0.046 |
